Laboratory results published in ChEMBL document CHEMBL3621163, “Phenothiazine-based CaaX competitive inhibitors of human farnesyltransferase bearing a cysteine, methionine, serine or valine moiety as a new family of antitumoral compounds” (Bioorg Med Chem Lett, 2015).
pIC50: −log10 of the molar value.

Experiments:
Type in all cases: protein-complex assay
[1] = target: T1, Protein farnesyltransferase (Homo sapiens, UniProt P49354+P49356); assay: Inhibition of recombinant human FTase using FPP/dansyl-GCVLS as substrate at 100 uM measured for 15 mins by fluorimetric analysis relative to control
[2] = target: T1, Protein farnesyltransferase; assay: Inhibition of recombinant human FTase using FPP/dansyl-GCVLS as substrate measured for 15 mins by fluorimetric analysis
[3] = target: T1, Protein farnesyltransferase; assay: Inhibition of human FTase

inhibition [1] | pIC50 [2] | pIC50 [3] | SMILES
23% |  |  | COC(=O)[C@H](CO)NC(=O)CCn1c2ccccc2c2ccccc21
94% | 4.92 |  | O=C(CCN1c2ccccc2Sc2ccccc21)N[C@@H](CO)C(=O)O
67% | 4.18 |  | O=C(CCn1c2ccccc2c2ccccc21)N[C@@H](CS)C(=O)O
22% |  |  | CC(C)[C@H](NC(=O)CCn1c2ccccc2c2ccccc21)C(=O)O
33% |  |  | O=C(CCn1c2ccccc2c2ccccc21)N[C@@H](CO)C(=O)O
12% |  |  | COC(=O)[C@@H](NC(=O)CCn1c2ccccc2c2ccccc21)C(C)C
15% |  |  | CCOC(=O)[C@H](CS)NC(=O)CCn1c2ccccc2c2ccccc21
51% |  |  | COC(=O)[C@H](CCSC)NC(=O)CCn1c2ccccc2c2ccccc21
 |  | 4.46 | O=C(CCn1c2ccccc2c2ccccc21)OCCS
63% |  |  | COC(=O)[C@H](CO)NC(=O)CCN1c2ccccc2Sc2ccccc21
73% | 4.40 |  | CSCC[C@H](NC(=O)CCn1c2ccccc2c2ccccc21)C(=O)O

Further lines, the compound ahead of its results:

SMILES | inhibition [1] | pIC50 [2] | pIC50 [3]
CCOC(=O)[C@H](CSSC[C@H](NC(=O)CCN1c2ccccc2Sc2ccccc21)C(=O)OCC)NC(=O)CCN1c2ccccc2Sc2ccccc21 | 0% |  | 
COC(=O)[C@H](CCSC)NC(=O)CCN1c2ccccc2Sc2ccccc21 | 5% |  | 
CCOC(=O)[C@H](CS)NC(=O)CCN1c2ccccc2Sc2ccccc21 | 10% |  | 
CSCC[C@H](NC(=O)CCN1c2ccccc2Sc2ccc(Cl)cc21)C(=O)O | 96% | 4.72 | 
COC(=O)[C@@H](NC(=O)CCN1c2ccccc2Sc2ccccc21)C(C)C | 52% |  | 
CC(C)[C@H](NC(=O)CCN1c2ccccc2Sc2ccccc21)C(=O)O | 76% | 4.35 | 
O=C(CCN1c2ccccc2Sc2ccccc21)N[C@@H](CS)C(=O)O | 92% | 5.33 | 
COC(=O)[C@H](CCSC)NC(=O)CCN1c2ccccc2Sc2ccc(Cl)cc21 | 0% |  | 
CSCC[C@H](NC(=O)CCN1c2ccccc2Sc2ccccc21)C(=O)O | 92% | 4.93 | 
